Consider one molecule from patent US20220213030A1, “AMINOGUANIDINE HYDRAZONES AS RETROMER STABILIZERS USEFUL FOR TREATING NEUROLOGICAL DISEASES” (OSPEDALE SAN RAFFAELE SRL, priority 2019, published 2022).

The structures appear in SMILES notation. Entries after “also recorded” stand apart in the source; their conditions may differ.

In one assay the test system is VPS26b. The assay can be described thus: VPS26b western blot in spinal cord extracts of G93A mice. Type of assay: in vivo, mouse. Conditions: 10 mg/kg, day 100. On the procedure:
Lumbar spinal cords were dissected from saline perfused mice and rapidly homogenized in the following lysis buffer: Tris-HCl 10 mM pH 8, EDTA pH 8 1 mM, NaCl 100 mM, NP40 1% and protease inhibitor cocktail (Sigma). Protein extracts were obtained using a tight-fitting glass Potter tissue grinder (1 ml; Wheaton) and then sonicated at a frequency of 20 kHz (10 times-1s). Protein lysates from cells cultures were obtained from plates receiving PBS1× washing and subsequently the lysis buffer followed by sonication. Protein concentrations were measured by BCA protein assay kit (Thermofisher) according to the manufacturer's recommendations. Ten μg of protein extract was loaded on 10% Mini-PROTEAN TGX Stain-Free precast gels for PAGE (Bio-Rad). Gel electrophoresis was performed at 100 V for 2 hours. Gels were transferred on Immobilon®-P PVDF membrane according to the manufacturer's instructions (Millipore). Blots were blocked in 5% BSA in Tris buffered saline plus 0.1% Tween-20 (TBS-T) for 1 hour before receiving primary antibodies: goat α-VPS35 1:800 (ab10099, Abcam); rabbit α-VPS26b 1:1000 (15915-1-AP, ProteinTech); rabbit α-VPS29 1:1000 (ab236796 Abcam); mouse α-βActin 1:25000 (Sigma); mouse α-Golgin97 1:1000 (Invitrogen); mouse α-Ubiquitin 1:500 (Merk) overnight at 4° C. on shaker. […] Quantifications were done using the Image Lab 6.0.1 software (Bio-Rad).

In a further assay the target is VPS35 (Mus musculus, UniProt Q9EQH3+Q9QZ88). The assay can be described thus: VPS35 levels in Neuro2a cells by Western blot (screening of amino guanidine hydrazones). Type of assay: cell-based. Details: endogenous in cells; host or cells: Neuro2a. Conditions: 48 hours. On the procedure: To functionally screen the majority of synthetized amino guanidine hydrazones of the invention and determine their effects on the retromer complex, we incubated Neuro2a cells with each synthetized molecule at the concentration of 10 μM.
The test was executed in triplicate for each tested compound of the invention, cells lysates were established after 48 hours' incubation, and levels of VPS35 were normalized on the housekeeping gene β-Actin by Western blot. We observed a preliminary SAR among the compounds.
Fold changes are calculated over normalized VPS35 levels measured in vehicle-treated cells.
Neuro2a cells were seeded on 12 wells multiwell at the concentration of 100 000 cells/well. Cells were incubated with each compound, including the standard R55, at 10 μM for 48 hours. Cells were then washed in PBS 1× and lysed in a buffer containing Tris-HCl 10 mM pH8, EDTA 1 mM pH8, NaCl 100 mM, NP40 1%, with protease inhibitor cocktail (Sigma) 1×. Using a cell scraper total lysates were collected from each well, quantified with BCA (BCA protein assay, Thermofisher). Five μg were resolved on precast 10% acrylamide gel (Biorad). Proteins were transferred to a PVDF membrane (Millipore) and western blot were performed using the following antibodies: goat αVPS35 (1:1000), mouse α-βActin (1:10000). Detection of proteins was obtained by a chemiluminescence detection kit (PerkinElmer).

The subject of assay [1] is Golgi apparatus in Neuro2a cells receiving G93A plasmids. Nature of the assay: Golgi morphology (Golgin97) in Neuro2a cells receiving G93A plasmids. Conditions: 10 μM, 48 hours, G93A-transfected Neuro2a. It is filed as cell-based, mouse. From the text:
Pathological alteration of the Golgi apparatus, such as its fragmentation, has been described in many neurodegenerative disorders including ALS. Neuro2a cells transfected with plasmids encoding the G93A mutant form of the SOD1 show alteration of the Golgi transport (Soo, Halloran et al. 2015). Along the same lines, Golgi fragmentation precedes neuromuscular denervation and axon retraction in ALS mice (van Dis, Kuijpers et al. 2014). We transfected Neuro2a cells with plasmids encoding the G93A mutant form of the human SOD1 gene (hereafter G93A) in presence or in absence of compound 2a (10 μM). Cells were harvested after 48 hours, labelled for Golgin-97 and scored for the distribution of trans-Golgi. […] Of note, the fragmentation of Golgi in cells receiving G93A plasmids was not depending on Golgin97 expression levels (FIG. 3A). We speculated that Golgi fragmentation may exacerbate cell death in this cell line. Therefore, we assayed cell survival of Neuro2a transfected with G93A plasmids. Accordingly, cells were transfected with G93A plasmids or with a control plasmid encoding the LacZ. […]
Golgi morphology was assessed in control or in Neuro2a cells receiving G93A plasmids with or without compound 2a (10 μM) according to published methods (Stafa 2012). […] Golgi subclasses were expressed as a percent of the total number of Golgi scored for each experimental condition.

In the case of `N=C(N)NN=Cc1cccc(C=NNC(=N)N)c1` [Compound 2a, 1,3-Bis-amino guanidine phenyl hydrazone], in the assay on VPS26b, the “VPS26b levels in SC extracts (WB)” value was “increase VPS35 and VPS26b levels”. The “Mean fold changes (VPS35 levels normalized on β-Actin, over vehicle-treated cells)” value on VPS35 (10 μM, independent cultures n=3) amounted to 1.951. Further, the “VPS35 levels (in words)” value on VPS35 (compounds at 10 μM) is on record as “able to consistently increase VPS35 levels with a limited variability among replicates; also recorded: increased”. Moreover, in assay [1], the “percentages of cells showing partial or complete fragmentation of the Golgi complex” value is listed as “significantly diminished these percentages”.
